Source: patent publication US4053615A, “Phthalimidopiperidines and anti-convulsant compositions thereof” (John Wyeth & Brother Limited, priority 1972, dated 1977)

Key:
[1] = system: tonic extensor seizures (maximal electroshock); assay: Procedure B: maximal electroshock seizures (MES); assay type: in vivo; parameters: key to Activity class, Procedure B: INACTIVE: A compound is regarded as inactive in either one of the two procedures if the ED50 of the compound in the test procedure is greater than 400 mg/kg; settings: mice, orally; for ED50: Mus musculus, po, 1 h, supramaximal electroshock one hour later (25 mA, 0.2 sec), read-out: ED50 (against convulsions), Procedure B
Description: MAXIMAL ELECTROSHOCK SEIZURES (MES)
Compounds at graded dose levels are administered orally to groups of six mice. One hour later, the animals are given a supramaximal electroshock through pinna electrodes (25 mA, 0.2 sec). Presence or absence of tonic extensor seizures as well as the number of deaths are recorded.
The percent protection against seizures is calculated. An ED50 against convulsions is calculated from probit-log dose curves.

[2] = system: clonic and tonic convulsions induced by pentylenetetrazole; assay: Procedure A: anti-pentylenetetrazole activity; assay type: in vivo; parameters: key to Activity class, Procedure A: INACTIVE: A compound is regarded as inactive in either one of the two procedures if the ED50 of the compound in the test procedure is greater than 400 mg/kg; settings: mice, p.o.; for ED50: Mus musculus, po, 1 h, challenge one hour later with pentylenetetrazole 125 mg/kg i.p., read-out: ED50 (against convulsions), Procedure A
Description: ANTI-PENTYLENETETRAZOLE ACTIVITY
Compounds at a number of dose levels are administered p.o. to groups of six mice (3 males and 3 females). One hour later the animals are challenged with pentylenetetrazole (125mg/kg i.p.). The incidence of clonic and tonic convulsions and deaths is observed for one-half hour. Protection against convulsions and death is determined by comparison with controls run simultaneously. An ED50 against convulsions is calculated from probit-log dose curves.

[3] = Anti-inflammatory activity; assay type: in vivo; settings: when tested on warm blooded animals
[4] = system: blood platelet aggregation; assay: Inhibition of blood platelet aggregation
[5] = Anti-arrhythmic activity; assay type: in vivo; settings: when tested on warm blooded animals

SMILES	ED50 [2]	also measured
CCN1CCC(N2C(=O)c3ccccc3C2=O)C1 (stereo not shown) [1-ethyl-3-phthalimido-pyrrolidine, 1-ethyl-3-phthalimidopyrrolidine, reference compound]	> 400 mg/kg	ED50 [1]: > 400 mg/kg; Activity class, Procedure B ([1]; maximal electroshock): INACTIVE; Activity class, Procedure A ([2]; pentylenetetrazole challenge): INACTIVE
O=C1c2ccccc2C(=O)N1C1CCN(Cc2ccccc2)CC1 [Example 1, 1-Benzyl-4-phthalimido-piperidine]	–	anti-inflammatory activity [3]: Anti-inflammatory activity is shown
O=C1c2ccccc2C(=O)N1C1CCNCC1 [Example 2, 4-Phthalimido-piperidine]	–	inhibition of blood platelet aggregation [4]: active as an inhibitor of blood platelet aggregation
CCN1CCCC(N2C(=O)c3ccccc3C2=O)C1 (stereo not shown) [Example 3, 1-Ethyl-3-phthalimido-piperidine]	51 to 100 mg/kg	anti-arrhythmic activity [5]: anti-arrhythmic activity is shown; ED50 [1]: 31 to 50 mg/kg
CCN1CCCC(N2C(=O)c3ccc([N+](=O)[O-])cc3C2=O)C1 (stereo not shown) [Example 4, 1-Ethyl-3-(4-nitrophthalimido)piperidine]	6 to 15 mg/kg	anti-arrhythmic activity [5]: anti-arrhythmic activity is shown
CCN1CCCC(N2C(=O)c3ccc(N)cc3C2=O)C1 (stereo not shown) [Example 6, 3-(4-Aminophthalimido)-1-ethylpiperidine]	6 to 15 mg/kg	–
CCCCN1CCC(N2C(=O)c3ccc([N+](=O)[O-])cc3C2=O)CC1 [Example 12, 1-n-Butyl-4-(4-nitrophthalimido)piperidine]	6 to 15 mg/kg	–
CCCCN1CCC(N2C(=O)c3ccc(N)cc3C2=O)CC1 [Example 13, 4-(4-Aminophthalimido)-1-n-butylpiperidine]	6 to 15 mg/kg	–
O=C1c2ccc([N+](=O)[O-])cc2C(=O)N1C1CCN(Cc2ccccc2)CC1 [Example 15, 1-Benzyl-4-(4-nitrophthalimido)piperidine]	6 to 15 mg/kg	–
Nc1ccc2c(c1)C(=O)N(C1CCN(Cc3ccccc3)CC1)C2=O [Example 16, 4-(4-Aminophthalimido)-1-benzylpiperidine]	6 to 15 mg/kg	–
